Experiments:
SmBdh = target: T1, SmBdh (Serratia marcescens, UniProt H9XP47); experiment: X-ray crystal structure, […] A; assay type: binding
T1 construct: gene budC; full length, N-terminal His6 and TEV site after start codon (cleavage not described), codon-optimized, expressed in Zymomonas mobilis 9C; tetramer, site completed by Gln247 of the symmetry-related chain
T1 sequence (H9XP47 2-251): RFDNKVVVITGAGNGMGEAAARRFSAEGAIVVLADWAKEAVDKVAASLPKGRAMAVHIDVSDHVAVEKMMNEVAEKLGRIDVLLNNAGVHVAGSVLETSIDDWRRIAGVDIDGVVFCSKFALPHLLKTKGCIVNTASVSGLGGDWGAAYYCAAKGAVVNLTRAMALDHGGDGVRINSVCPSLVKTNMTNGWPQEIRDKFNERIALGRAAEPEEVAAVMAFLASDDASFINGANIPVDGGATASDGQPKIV

EcBdh = target: T2, EcBdh (Enterobacter cloacae, UniProt G8FSA9); experiment: NADH consumption at […] nm; assay type: biochemical; details: 0.25 mM NADH, 25 mM acetoin, 100 mM potassium phosphate pH 7.0; racemic acetoin
T2 construct: gene dar; full length, N-terminal His6 and TEV site (cleavage not described), gene amplified from Z. mobilis strain BC-11B, expressed in Zymomonas mobilis 9C, purified
T2 sequence (G8FSA9 1-256): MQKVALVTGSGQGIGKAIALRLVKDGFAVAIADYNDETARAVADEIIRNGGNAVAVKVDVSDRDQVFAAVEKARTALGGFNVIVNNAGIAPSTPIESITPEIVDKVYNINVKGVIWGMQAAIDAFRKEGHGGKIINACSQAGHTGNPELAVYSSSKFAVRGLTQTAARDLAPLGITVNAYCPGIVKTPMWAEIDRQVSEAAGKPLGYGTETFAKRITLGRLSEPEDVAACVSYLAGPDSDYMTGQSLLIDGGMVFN

crystal structure = target: the molecule itself; experiment: crystal structure

## CC(=O)[C@@H](C)O [(3R)-acetoin]
SmBdh; NAD+ bound, active site of closed molecule A, modelled together with (3S)-acetoin from racemate
  X-ray crystal structure, 2.0 A: both (3R)- and (3S)-acetoin molecules bound in the pocket

## Nc1ncnc2c1ncn2[C@@H]1O[C@H](COP(=O)(O)OP(=O)(O)O)[C@@H](O)[C@H]1O [ADP]
SmBdh; cofactor site of open molecule B, only NAD+ was added in crystallization
  X-ray crystal structure, 2.0 A: the corresponding space is occupied by only adenine diphosphate

## CC(=O)C(C)O (racemic) [acetoin]
EcBdh
  NADH consumption at 340 nm: Proteins were expressed in the Z. mobilis 9C strain, purified to homogeneity

## CC(=O)[C@H](C)O [(3S)-acetoin]
SmBdh; NAD+ bound, active site of closed molecule A, modelled together with (3R)-acetoin from racemate
  X-ray crystal structure, 2.0 A: both (3R)- and (3S)-acetoin molecules bound in the pocket

## NC(=O)C1=CN([C@@H]2O[C@H](COP(=O)(O)OP(=O)(O)OC[C@H]3O[C@@H](n4cnc5c(N)ncnc54)[C@H](O)[C@@H]3O)[C@@H](O)[C@H]2O)C=CC1 [NADH]
EcBdh
  NADH consumption at 340 nm: subjected to activity analysis using the NADH consumption assay

## NC(=O)c1ccc[n+]([C@@H]2O[C@H](COP(=O)(O)OP(=O)(O)OC[C@H]3O[C@@H](n4cnc5c(N)ncnc54)[C@H](O)[C@@H]3O)[C@@H](O)[C@H]2O)c1 [NAD^+]
SmBdh; cofactor site of closed molecule A, with acetoin
  X-ray crystal structure, 2.0 A: locate NAD ^+ cofactor molecule and acetoin molecules in protein molecule A

B1: Serratia marcescens 2,3-butanediol dehydrogenase, wild type (N-term SmBdh) (enzyme, UniProt H9XP47 1-251, looked up)
chain: MRFDNKVVVITGAGNGMGEAAARRFSAEGAIVVLADWAKEAVDKVAASLPKGRAMAVHIDVSDHVAVEKMMNEVAEKLGRIDVLLNNAGVHVAGSVLETSIDDWRRIAGVDIDGVVFCSKFALPHLLKTKGCIVNTASVSGLGGDWGAAYYCAAKGAVVNLTRAMALDHGGDGVRINSVCPSLVKTNMTNGWPQEIRDKFNERIALGRAAEPEEVAAVMAFLASDDASFINGANIPVDGGATASDGQPKIV
notes: tag and TEV site placed immediately after the start codon; also called WT SmBdh; WT SmBDH; source: Z. mobilis strain 9C, purified (HisTrap, size exclusion chromatography)
Crystal structure
  stoichiometry N: 4

B2: Serratia marcescens 2,3-butanediol dehydrogenase Q247A + V139Q double mutant (enzyme)
chain: MRFDNKVVVITGAGNGMGEAAARRFSAEGAIVVLADWAKEAVDKVAASLPKGRAMAVHIDVSDHVAVEKMMNEVAEKLGRIDVLLNNAGVHVAGSVLETSIDDWRRIAGVDIDGVVFCSKFALPHLLKTKGCIVNTASQSGLGGDWGAAYYCAAKGAVVNLTRAMALDHGGDGVRINSVCPSLVKTNMTNGWPQEIRDKFNERIALGRAAEPEEVAAVMAFLASDDASFINGANIPVDGGATASDGAPKIV
notes: also called SmBdh Q247A + V139Q; Q247A + V139Q SmBdh; source: Z. mobilis strain 9C, purified (HisTrap, size exclusion chromatography)
Crystal structure
  binding result: binds

B3: Serratia marcescens 2,3-butanediol dehydrogenase Q247A mutant (enzyme)
chain: MRFDNKVVVITGAGNGMGEAAARRFSAEGAIVVLADWAKEAVDKVAASLPKGRAMAVHIDVSDHVAVEKMMNEVAEKLGRIDVLLNNAGVHVAGSVLETSIDDWRRIAGVDIDGVVFCSKFALPHLLKTKGCIVNTASVSGLGGDWGAAYYCAAKGAVVNLTRAMALDHGGDGVRINSVCPSLVKTNMTNGWPQEIRDKFNERIALGRAAEPEEVAAVMAFLASDDASFINGANIPVDGGATASDGAPKIV
notes: also called SmBdh Q247A; Q247A SmBdh; source: Z. mobilis strain 9C, purified (HisTrap, size exclusion chromatography)
Crystal structure
  binding result: binds
